According to patent US20170368054A1, “Treatment of Glaucoma Using Laquinimod” (Teva Pharmaceutical Industries, Ltd., priority 2013, published 2017):
Where “and” joins values, the source holds several entries; their conditions need not be identical. Equal values may be shown once. Entries after “also recorded” stand apart in the source; their conditions may differ.

Experiments:
[1] = system: retinal ganglion cells (RGC); assay: Fluoro-Gold labeled RGC survival in rat hypertonic saline injection glaucoma model; assay type: in vivo, Brown Norway rats (Rattus norvegicus); settings: for Mean % RGC Loss (100-(100 x OHT/Non-OHT Mean RGC Counts per Retina)): OHT vs non-OHT retina, 5 weeks after 2nd HSI, vehicle 34.8
Source text: The purpose of this study was to assess the efficacy of laquinimod in protecting against chronic ocular hypertension (OHT) and RGC degeneration in a rat model of glaucoma, created by injecting hypertonic saline into the episcleral veins in one eye of the Brown Norway rat. In this model, RGC degeneration occurs in response to increased IOP and OHT similar to that in human patients with glaucoma. The rat model of chronic ocular hypertension (OHT)/glaucoma was created in the left eye of each animal via two hypertonic saline injections (HSI) each one week apart. The un-injected right eye served as the control. Throughout the study, the vehicle control and the test articles were prepared weekly. Rats were dosed once daily for oral administration (Group 5) and twice daily for topical administration groups (Groups 1-4), starting on the day of the first HSI until euthanasia. Detailed ocular examinations were performed one week after the 2nd HSI and on the day of euthanasia. […] Post-dose IOP was measured weekly for 5 weeks starting one week after the 2nd HSI until euthanasia. Animals were euthanized 5 weeks after the 2nd HSI. The retinas were flat-mounted, slide IDs were masked and 8 regions per retina were imaged using a confocal microscope. RGC at these regions were counted using the Image J software. After the optic nerves were extracted, they were plastic-embedded, sectioned and stained with Toluidine Blue at Schepens Eye Research Institute, Boston, Mass.. The injury in the optic nerves was evaluated and graded by microscopic examination in a masked fashion. Chronic ocular hypertension (OHT) was created through two hypertonic saline injections (HSI) which were performed one week apart in the left eye. For each HSI, after the rats were anesthetized with a suitable anesthetic, a suture thread was passed through the left eyelid to fix it open. A local anesthetic (e.g., 0.5% Proparacaine HCl Ophthalmic Solution) was applied on the surgery eye topically. The conjunctiva was incised with Vannas scissors to expose an episcleral vein. An occluder ring with a groove was fitted around the left eye to provide unobstructed passage for the selected episcleral vein while obstructing the other episcleral veins. Using a pulled-glass needle, 50-250 μL of 1.8 M hypertonic saline solution was injected into the exposed episcleral vein to scar the aqueous humor outflow pathway in an attempt to elevate IOP. The ring was removed shortly after the injection. The un-operated right eye served as the control. Ophthalmic ointment was applied to both eyes to prevent corneal damage. For each HSI procedure, buprenorphine was administered subcutaneously for approximately 24 hours to manage post-operative pains as appropriate. Clinical observations was performed at least once daily as described in Table 6. Approximately one week prior to euthanasia, RGC was labeled with the retrograde tracer FG. First, animals were sedated with appropriate anesthesia. […] Rats received subcutaneous injections of buprenorphine for approximately 48 hours to manage post-surgery pain as appropriate. The eyes were fixed in 4% paraformaldehyde (PFA) fixative at 4±2° C. for at least 24 hours. Retinas were dissected and flat whole-mounted for confocal visualization and imaging. The actual identification of the retinal flat-mounts was masked prior to confocal imaging. Eight regions per retina were imaged using a confocal microscope and the RGC in each region were counted as follows: Retinal images were evaluated by confocal fluorescence microscopic examination. A three-dimensional view of the x-axis, y-axis, and z-axis were designed and processed using a specific system of image analysis software (Leica Confocal Software) to obtain an image of the viable RGCs labeled with FG. Two areas which were approximately 1.5 mm and 2.75 mm away from the center of the ON head were selected in each retinal quadrant (8 regions per retina) and serial images of the retinal ganglion cell layer were taken by the Confocal Microscope. […]

Brown Norway rats = settings: rat, in vivo
Experimental: Prior to any experimental procedure, clinical observations were performed daily, body weights were obtained, intraocular pressure (IOP) was measured and detailed ocular examinations were performed on both eyes.
Clinical observations were performed daily according to Table 6 below:
Animals were weighed weekly prior to initiation of dosing. The first day the rats are weighed was designated as Study Day 1, and the beginning of Study Week 1.
Animals selected for the study were examined prior to the initial administration of the test or the control articles to ensure that both eyes were free of abnormality, damage, and disease. Both eyes were examined, scored and recorded prior to the initial dose administration using a hand held slit-lamp and a direct ophthalmoscope or the surgical microscope according to the Classification System for Grading Ocular Lesions as described in Table 7, and the Ocular Posterior Segment Scoring Scale of Table 8. Posterior segment examination was performed after topical application of Tropicamide in the conscious state, or after the rats are anesthetized with isoflorane inhalation. Only rats showing no signs of eye irritation, ocular defects, or preexisting corneal injury were used in the study. […]
Both eyes were examined and scored at one week after the second HSI and on the day of euthanasia, for a total of two times. […]

glaucoma human patients = assay: Example 2: efficacy of laquinimod for treating patients afflicted with glaucoma; assay type: in vivo
Experimental: Example 2: Assessment of Efficacy of laquinimod for Treating Patients Afflicted with Glaucoma Periodic (e.g., daily or twice daily) administration of laquinimod (oral or topical) is effective in treating glaucoma human patients. Periodic (e.g., daily or twice daily) administration of laquinimod (oral or topical) is effective to reduce a glaucoma-associated symptom in the subject. A laquinimod composition as described herein is administered systematically or locally to the eye of a subject suffering from glaucoma. The administration of the composition is effective to treat the subject suffering from glaucoma. The administration of the composition is also effective to reduce a glaucoma-associated symptom of glaucoma in the subject.

[2] = human subject with glaucoma, systemic or local administration to the eye

## CCN(C(=O)c1c(O)c2c(Cl)cccc2n(C)c1=O)c1ccccc1 [Laquinimod]
[1]; Group 1, 1% Laquinimod topical, P=0.189
  FG-Labeled RGC counts per mm2, OHT vs Non-OHT retinas, two-tailed paired-t test: no statistically significant difference
[1]; Group 1, topical 1% laquinimod twice daily
  Mean % RGC Loss (100-(100 x OHT/Non-OHT Mean RGC Counts per Retina)): 17.6±33.8% and 17.6%
[1]; Group 3, 4% Laquinimod topical, P=0.071
  FG-Labeled RGC counts per mm2, OHT vs Non-OHT retinas, two-tailed paired-t test: statistically marginally different
[1]; Group 3, topical 4% laquinimod twice daily
  Mean % RGC Loss (100-(100 x OHT/Non-OHT Mean RGC Counts per Retina)): 26.8±36.4% and 26.8%
[1]; Group 4, 0.25% Laquinimod topical, P=0.033
  FG-Labeled RGC counts per mm2, OHT vs Non-OHT retinas, two-tailed paired-t test: fewer RGCs in the OHT eye
[1]; Group 4, topical 0.25% laquinimod twice daily
  Mean % RGC Loss (100-(100 x OHT/Non-OHT Mean RGC Counts per Retina)): 21.6±21.7% and 21.6%
[1]; Group 5, 0.1% Laquinimod oral, P=0.075
  FG-Labeled RGC counts per mm2, OHT vs Non-OHT retinas, two-tailed paired-t test: statistically marginally different
[1]; Group 5, oral 0.1% laquinimod once daily (1 mL)
  Mean % RGC Loss (100-(100 x OHT/Non-OHT Mean RGC Counts per Retina)): 22.9±33.1% and 22.9%
[1]; all groups (0.25%, 1%, 4% topical, 0.1% oral, vehicle), P=0.919
  RGC counts in OHT and Non-OHT eyes versus groups, Two-Way ANOVA eye versus group interaction: groups did not differ
[1]; daily topical application of 1% Laquinimod, Group 1
  Neuroprotection for the RGC (conclusion from RGC counts): may be neuroprotective; also recorded: trend towards neuroprotection
Brown Norway rats
  Weight gained between day of dosing and day of euthanasia, groups compared: did not differ
Glaucoma human patients; human patients, periodic (e.g. daily or twice daily) oral or topical administration
  Treating glaucoma / reducing a glaucoma-associated symptom: effective
Glaucoma human patients; [2]
  Reduction of RGC damage and/or RGC loss, improvement of RGC viability: effective to reduce RGC damage and/or RGC loss
  Reduction of intraocular pressure: effective to reduce intraocular pressure
